According to US20260224588A1, “BENZODIAZEPINONE-DERIVED INHIBITORS OF EGFR AND HER2” (The Research Foundation for the State University of New York, priority 2023, published 2026):

Tests used:
Assay in all cases: KINOMEscan
Assay type in all cases: binding
Details in all cases: 1 μM of compound 4; read-out: POC
[1] = molecular target: T1, PCTK3 (Homo sapiens, UniProt Q07002)
T1 construct: purchased Eurofins DiscoverX Corporation (KINOMEscan)

[2] = molecular target: AURKC (Homo sapiens, UniProt Q9UQB9)
[3] = molecular target: T2, FGR (Homo sapiens, UniProt P09769)
T2 construct: purchased Eurofins DiscoverX Corporation

[4] = molecular target: T3, PFTAIRE2 (Homo sapiens, UniProt Q96Q40)
T3 construct: purchased Eurofins DiscoverX Corporation (KINOMEscan)

[5] = molecular target: BUB1 (Homo sapiens, UniProt O43683)
[6] = molecular target: DYRK1B (Homo sapiens, UniProt Q9Y463)
[7] = molecular target: MTOR (Homo sapiens, UniProt P42345)
[8] = molecular target: T4, QSK (Homo sapiens, UniProt Q9Y2K2)
T4 construct: purchased Eurofins DiscoverX Corporation (KINOMEscan screening service)

[9] = molecular target: HUNK (Homo sapiens, UniProt P57058)
[10] = molecular target: T5, EPHA7 (Homo sapiens, UniProt Q15375)
T5 construct: purchased Eurofins DiscoverX (KINOMEscan service)

[11] = molecular target: KIT (Homo sapiens, UniProt P10721)
[12] = molecular target: ITK (Homo sapiens, UniProt Q08881)
[13] = molecular target: T6, TIE1 (Homo sapiens, UniProt P35590)
T6 construct: purchased Eurofins DiscoverX Corporation

[14] = molecular target: AMPK-alpha1 (Homo sapiens, UniProt Q13131)
[15] = molecular target: T7, YES (Homo sapiens, UniProt P07947)
T7 construct: purchased Eurofins DiscoverX

[16] = molecular target: KIT(A829P) (Homo sapiens, UniProt P10721, A829P)
[17] = molecular target: CLK3 (Homo sapiens, UniProt P49761)
[18] = molecular target: T8, STK16 (Homo sapiens, UniProt O75716)
T8 construct: purchased Eurofins DiscoverX (KINOMEscan service)

[19] = molecular target: CSNK1A1 (Homo sapiens, UniProt P48729)
[20] = molecular target: T9, RIPK5 (Homo sapiens, UniProt Q6XUX3)
T9 construct: purchased Eurofins DiscoverX Corporation (KINOMEscan screening service)

[21] = molecular target: ARK5 (Homo sapiens, UniProt O60285)
[22] = molecular target: CSNK2A2 (Homo sapiens, UniProt P19784)
[23] = molecular target: T10, ULK1 (Homo sapiens, UniProt O75385)
T10 construct: purchased Eurofins DiscoverX

[24] = molecular target: CDK7 (Homo sapiens, UniProt P50613)
[25] = molecular target: T11, RSK3(Kin.Dom.1-N-terminal) (Homo sapiens, UniProt Q15349)
T11 construct: RSK3(Kin.Dom.1-N-terminal); purchased Eurofins DiscoverX (KINOMEscan service)

[26] = molecular target: T12, FAK (Homo sapiens, UniProt Q05397)
T12 construct: purchased Eurofins DiscoverX Corporation

[27] = molecular target: ICK (Homo sapiens, UniProt Q9UPZ9)
[28] = molecular target: DYRK1A (Homo sapiens, UniProt Q13627)
[29] = molecular target: T13, NIM1 (Homo sapiens, UniProt Q8IY84)
T13 construct: purchased Eurofins DiscoverX Corporation (KINOMEscan)

[30] = molecular target: T14, ABL1(H396P)-phosphorylated (Homo sapiens, UniProt P00519, H396P)
T14 construct: purchased Eurofins DiscoverX Corporation

[31] = molecular target: MAP3K2 (Homo sapiens, UniProt Q9Y2U5)
[32] = molecular target: CDK4 (Homo sapiens, UniProt P11802)
[33] = molecular target: JAK1(JH1domain-catalytic) (Homo sapiens, UniProt P23458)
[34] = molecular target: T15, EPHA4 (Homo sapiens, UniProt P54764)
T15 construct: purchased Eurofins DiscoverX (KINOMEscan service)

[35] = molecular target: T16, RAF1 (Homo sapiens, UniProt P04049)
T16 construct: purchased Eurofins DiscoverX Corporation (KINOMEscan screening service)

[36] = molecular target: INSRR (Homo sapiens, UniProt P14616)
[37] = molecular target: LZK (Homo sapiens, UniProt O43283)
[38] = molecular target: CHEK1 (Homo sapiens, UniProt O14757)
[39] = molecular target: T17, GAK (Homo sapiens, UniProt O14976)
T17 construct: purchased Eurofins DiscoverX Corporation

T6 sequence (P35590 22-1138): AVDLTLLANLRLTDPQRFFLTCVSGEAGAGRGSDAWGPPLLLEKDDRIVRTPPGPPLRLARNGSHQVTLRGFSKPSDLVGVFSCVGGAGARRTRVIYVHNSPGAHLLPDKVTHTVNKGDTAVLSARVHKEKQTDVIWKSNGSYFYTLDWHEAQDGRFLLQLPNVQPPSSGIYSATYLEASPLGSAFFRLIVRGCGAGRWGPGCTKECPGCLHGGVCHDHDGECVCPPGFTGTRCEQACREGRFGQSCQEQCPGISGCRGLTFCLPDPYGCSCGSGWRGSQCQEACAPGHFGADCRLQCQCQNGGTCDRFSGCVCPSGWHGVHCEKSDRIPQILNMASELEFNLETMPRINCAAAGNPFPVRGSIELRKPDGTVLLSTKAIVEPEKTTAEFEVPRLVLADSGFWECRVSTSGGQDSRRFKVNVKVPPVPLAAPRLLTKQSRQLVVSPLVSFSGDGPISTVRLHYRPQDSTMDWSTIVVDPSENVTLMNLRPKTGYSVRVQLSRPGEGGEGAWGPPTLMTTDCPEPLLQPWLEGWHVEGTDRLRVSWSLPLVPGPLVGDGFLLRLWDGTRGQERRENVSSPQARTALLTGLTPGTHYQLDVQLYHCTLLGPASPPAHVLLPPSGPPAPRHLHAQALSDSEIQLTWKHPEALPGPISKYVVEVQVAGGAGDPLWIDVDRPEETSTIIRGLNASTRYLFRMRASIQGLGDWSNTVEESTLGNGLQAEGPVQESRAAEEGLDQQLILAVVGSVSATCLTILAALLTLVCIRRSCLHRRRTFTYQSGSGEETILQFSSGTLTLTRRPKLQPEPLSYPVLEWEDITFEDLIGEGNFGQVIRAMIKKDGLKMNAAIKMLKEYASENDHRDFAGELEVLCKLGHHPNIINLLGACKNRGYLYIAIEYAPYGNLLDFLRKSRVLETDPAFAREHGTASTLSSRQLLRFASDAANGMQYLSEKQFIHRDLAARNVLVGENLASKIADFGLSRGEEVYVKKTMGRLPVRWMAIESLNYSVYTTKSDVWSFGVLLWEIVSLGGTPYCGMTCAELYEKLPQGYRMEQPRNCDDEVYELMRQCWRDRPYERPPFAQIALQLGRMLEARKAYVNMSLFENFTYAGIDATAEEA
T1 sequence (Q07002 whole entry): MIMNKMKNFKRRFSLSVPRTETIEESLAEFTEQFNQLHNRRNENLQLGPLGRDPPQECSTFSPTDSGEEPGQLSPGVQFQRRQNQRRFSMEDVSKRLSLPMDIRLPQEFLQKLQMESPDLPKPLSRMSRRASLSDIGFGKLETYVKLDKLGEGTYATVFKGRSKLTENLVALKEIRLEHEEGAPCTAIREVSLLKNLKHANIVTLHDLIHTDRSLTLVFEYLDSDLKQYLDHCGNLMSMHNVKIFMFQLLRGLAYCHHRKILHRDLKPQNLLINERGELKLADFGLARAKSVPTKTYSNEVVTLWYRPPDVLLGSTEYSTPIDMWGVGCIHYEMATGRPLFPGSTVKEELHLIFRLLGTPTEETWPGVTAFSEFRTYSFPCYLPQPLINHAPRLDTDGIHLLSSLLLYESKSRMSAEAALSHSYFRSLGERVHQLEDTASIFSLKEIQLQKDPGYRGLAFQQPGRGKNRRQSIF
T16 sequence (P04049 whole entry): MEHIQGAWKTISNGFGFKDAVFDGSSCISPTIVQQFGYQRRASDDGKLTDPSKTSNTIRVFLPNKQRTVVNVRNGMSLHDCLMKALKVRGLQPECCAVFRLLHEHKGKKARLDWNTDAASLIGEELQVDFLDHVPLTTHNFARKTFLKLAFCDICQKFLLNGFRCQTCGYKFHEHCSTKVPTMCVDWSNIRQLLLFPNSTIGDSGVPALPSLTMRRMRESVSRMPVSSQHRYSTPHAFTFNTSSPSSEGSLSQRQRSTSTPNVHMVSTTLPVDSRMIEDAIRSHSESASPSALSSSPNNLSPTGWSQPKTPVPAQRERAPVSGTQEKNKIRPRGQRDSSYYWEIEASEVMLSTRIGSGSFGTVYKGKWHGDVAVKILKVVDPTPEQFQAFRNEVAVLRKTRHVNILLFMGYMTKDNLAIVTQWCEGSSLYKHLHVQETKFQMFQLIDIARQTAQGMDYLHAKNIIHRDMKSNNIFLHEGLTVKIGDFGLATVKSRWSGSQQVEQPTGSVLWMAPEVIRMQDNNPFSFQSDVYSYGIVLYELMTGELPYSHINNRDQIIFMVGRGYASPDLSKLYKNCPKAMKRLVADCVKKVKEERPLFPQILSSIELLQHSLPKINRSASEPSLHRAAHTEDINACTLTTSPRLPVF
Chain of BUB1 (O43683 whole entry): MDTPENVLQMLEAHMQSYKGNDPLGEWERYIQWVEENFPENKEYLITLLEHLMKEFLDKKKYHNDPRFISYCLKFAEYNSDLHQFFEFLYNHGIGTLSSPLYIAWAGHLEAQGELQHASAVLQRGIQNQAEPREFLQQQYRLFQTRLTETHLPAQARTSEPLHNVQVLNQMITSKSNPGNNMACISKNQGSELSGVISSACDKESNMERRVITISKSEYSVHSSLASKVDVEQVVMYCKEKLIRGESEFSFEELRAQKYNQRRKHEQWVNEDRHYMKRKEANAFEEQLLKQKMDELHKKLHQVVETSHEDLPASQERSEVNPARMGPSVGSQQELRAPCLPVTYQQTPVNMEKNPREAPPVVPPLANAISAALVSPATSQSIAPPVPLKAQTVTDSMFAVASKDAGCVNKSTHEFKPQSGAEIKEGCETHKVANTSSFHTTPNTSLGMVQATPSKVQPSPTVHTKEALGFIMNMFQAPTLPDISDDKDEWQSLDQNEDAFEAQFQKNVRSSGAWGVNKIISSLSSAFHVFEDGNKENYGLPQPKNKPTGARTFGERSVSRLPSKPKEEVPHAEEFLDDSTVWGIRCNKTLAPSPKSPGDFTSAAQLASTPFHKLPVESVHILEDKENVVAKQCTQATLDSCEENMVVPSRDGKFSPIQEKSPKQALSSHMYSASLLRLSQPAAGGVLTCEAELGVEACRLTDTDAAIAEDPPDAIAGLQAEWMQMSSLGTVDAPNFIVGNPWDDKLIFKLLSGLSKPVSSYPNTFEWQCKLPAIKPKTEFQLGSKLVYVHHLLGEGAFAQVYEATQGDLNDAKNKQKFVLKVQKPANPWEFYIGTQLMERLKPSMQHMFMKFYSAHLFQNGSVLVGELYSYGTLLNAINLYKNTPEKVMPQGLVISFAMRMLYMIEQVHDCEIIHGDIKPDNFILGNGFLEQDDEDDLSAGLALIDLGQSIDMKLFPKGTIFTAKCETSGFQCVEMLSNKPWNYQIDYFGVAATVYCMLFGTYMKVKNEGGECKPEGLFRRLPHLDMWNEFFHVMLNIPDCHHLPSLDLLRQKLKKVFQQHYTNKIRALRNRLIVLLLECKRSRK
T10 sequence (O75385 whole entry): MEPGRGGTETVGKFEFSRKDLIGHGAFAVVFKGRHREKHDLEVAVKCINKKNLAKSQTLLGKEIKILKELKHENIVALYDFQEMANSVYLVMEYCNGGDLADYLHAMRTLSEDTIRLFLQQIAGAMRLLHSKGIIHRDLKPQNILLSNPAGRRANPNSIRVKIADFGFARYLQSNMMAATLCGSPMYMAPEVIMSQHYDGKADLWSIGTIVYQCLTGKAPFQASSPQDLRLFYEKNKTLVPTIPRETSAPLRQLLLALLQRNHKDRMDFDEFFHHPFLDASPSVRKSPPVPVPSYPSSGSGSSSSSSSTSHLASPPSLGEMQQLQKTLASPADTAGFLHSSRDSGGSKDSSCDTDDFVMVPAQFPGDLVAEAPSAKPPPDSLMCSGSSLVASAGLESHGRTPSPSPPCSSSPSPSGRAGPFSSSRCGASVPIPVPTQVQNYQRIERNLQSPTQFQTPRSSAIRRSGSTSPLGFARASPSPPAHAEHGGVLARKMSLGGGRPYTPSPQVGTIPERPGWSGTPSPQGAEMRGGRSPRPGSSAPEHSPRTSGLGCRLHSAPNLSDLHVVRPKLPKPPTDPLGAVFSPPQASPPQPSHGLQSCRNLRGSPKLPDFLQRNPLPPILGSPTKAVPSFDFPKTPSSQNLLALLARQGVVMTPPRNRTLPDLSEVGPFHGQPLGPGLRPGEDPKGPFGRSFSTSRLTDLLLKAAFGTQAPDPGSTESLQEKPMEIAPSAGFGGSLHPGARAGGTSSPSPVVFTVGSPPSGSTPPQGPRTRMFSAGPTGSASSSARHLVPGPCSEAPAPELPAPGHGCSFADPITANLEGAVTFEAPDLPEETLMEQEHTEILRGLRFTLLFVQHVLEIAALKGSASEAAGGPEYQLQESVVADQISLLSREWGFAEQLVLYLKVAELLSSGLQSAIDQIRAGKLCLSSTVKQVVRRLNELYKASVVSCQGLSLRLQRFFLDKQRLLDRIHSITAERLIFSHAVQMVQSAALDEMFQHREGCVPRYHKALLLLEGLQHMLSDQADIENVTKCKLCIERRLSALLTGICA
T2 sequence (P09769 whole entry): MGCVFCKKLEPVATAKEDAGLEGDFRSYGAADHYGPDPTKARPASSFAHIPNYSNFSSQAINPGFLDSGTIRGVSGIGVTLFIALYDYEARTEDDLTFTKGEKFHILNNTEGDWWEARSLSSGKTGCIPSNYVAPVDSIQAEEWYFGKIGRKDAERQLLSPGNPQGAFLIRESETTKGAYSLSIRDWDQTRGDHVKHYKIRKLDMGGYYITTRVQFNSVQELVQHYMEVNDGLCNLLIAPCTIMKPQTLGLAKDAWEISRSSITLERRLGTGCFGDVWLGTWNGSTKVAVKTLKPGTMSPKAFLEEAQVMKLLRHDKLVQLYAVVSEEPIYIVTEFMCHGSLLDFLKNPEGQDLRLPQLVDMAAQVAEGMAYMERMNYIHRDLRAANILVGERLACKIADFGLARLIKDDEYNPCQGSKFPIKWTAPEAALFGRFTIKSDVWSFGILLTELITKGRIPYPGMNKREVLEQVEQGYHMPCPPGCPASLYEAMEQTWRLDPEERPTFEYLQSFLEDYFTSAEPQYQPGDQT

Structure (SMILES): C=CC(=O)Nc1ccc(OC)c(Nc2cc(-c3[nH]c(CC)nc3-c3cccc(NC(=O)c4cccc5c4NC(=O)c4ccccc4N5)c3)ccn2)c1 [Compound 4, N-(3-(5-(2-((5-Acrylamido-2-methoxyphenyl)amino)pyridin-4-yl)-2-ethyl-1H-imidazol-4-yl)phenyl)-11-oxo-10,11-dihydro-5H-dibenzo[b,e][1,4]diazepine-9-carboxamide]
- remaining binding at 1 µM [1]: 93%
- remaining binding at 1 µM [2]: 100%
- remaining binding at 1 µM [3]: 19%
- remaining binding at 1 µM [4]: 84%
- remaining binding at 1 µM [5]: 100%
- remaining binding at 1 µM [6]: 88%
- remaining binding at 1 µM [7]: 100%
- remaining binding at 1 µM [8]: 100%
- remaining binding at 1 µM [9]: 32%
- remaining binding at 1 µM [10]: 100%
- remaining binding at 1 µM [11]: 100%
- remaining binding at 1 µM [12]: 87%
- remaining binding at 1 µM [13]: 100%
- remaining binding at 1 µM [14]: 81%
- remaining binding at 1 µM [15]: 20%
- remaining binding at 1 µM [16]: 56%
- remaining binding at 1 µM [17]: 74%
- remaining binding at 1 µM [18]: 100%
- remaining binding at 1 µM [19]: 56%
- remaining binding at 1 µM [20]: 79%
- remaining binding at 1 µM [21]: 100%
- remaining binding at 1 µM [22]: 58%
- remaining binding at 1 µM [23]: 100%
- remaining binding at 1 µM [24]: 49%
- remaining binding at 1 µM [25]: 97%
- remaining binding at 1 µM [26]: 99%
- remaining binding at 1 µM [27]: 100%
- remaining binding at 1 µM [28]: 100%
- remaining binding at 1 µM [29]: 78%
- remaining binding at 1 µM [30]: 74%
- remaining binding at 1 µM [31]: 100%
- remaining binding at 1 µM [32]: 100%
- remaining binding at 1 µM [33]: 91%
- remaining binding at 1 µM [34]: 95%
- remaining binding at 1 µM [35]: 73%
- remaining binding at 1 µM [36]: 87%
- remaining binding at 1 µM [37]: 90%
- remaining binding at 1 µM [38]: 100%
- remaining binding at 1 µM [39]: 16%
